In patent US20130029334A1, “mRNA As Biomarkers For Liver Injury or Other Liver Perturbations” (priority 2010, published 2013):
“And” between values parts separate entries of the source, which are not always exact repeats. Identical values can stand only once. Like-named read-outs stand apart in the source and are kept apart here.

What was measured:
rats [1] = conditions: 48 hours
Experimental: (§1) In this example, to model a drug causing liver perturbation (such as injury or hepatotoxicity), hepatotoxicant D-galactosamine (“DGAL”) was administered to rats. Male Sprague-Dawley rats were administered DGAL at 0 (sterile PBS) or 1000 mg/kg intraperitoneally, and sacrificed after 24 hours. […] Blood was harvested from DGAL-treated rats, and serum liver enzymes were measured using a standard laboratory assay.
(§2) In this example, to exemplify a drug causing liver injury, drug acetaminophen (“APAP”) was administered to rats. Rats were administered APAP at 0, 100, 700, and 1400 mg/kg by gavage, and then sacrificed at 6, 24 or 48 hours after treatment. Hematoxylin and eosin-stained liver sections were examined by an accredited pathologist and scored for incidence and severity of hepatocellular necrosis.

rats [2] = assay: Alb, Fgb, Hp mRNA expression in liver of treated rats (FIG. 2); assay type: in vivo, rat
Experimental: FIG. 2 is a graph showing a log2 fold change in expression of Alb, Fgb, and Hp mRNA (detected as cDNA), respectively, in liver of rats treated with DGAL, or with acetaminophen (APAP), as compared to references values determined from rats not treated with DGAL (Control; solid black boxes) or APAP (Control; solid black boxes), respectively.
At 48 hours, Hp mRNA levels were increased by 9, 54 and 86 fold over controls, respectively, at 100, 700, and 1400 mg/kg APAP; while Alb mRNA levels were increased by 13 and 31 fold at 700 and 1400 mg/kg.

rats [3] = assay: Whole genome microarray analysis of plasma mRNA of treated rats; assay type: in vivo, rat; conditions: 24 h; for number of mRNA biomarkers differentially expressed: 2-fold change, false discovery rate <0.05
Description: In this example, illustrated is whole genome microarray analysis, which can be used to reveal treatment-specific transcriptomic profiles following liver injury or liver enzyme induction. […] Total RNA was isolated from the 14,000×g plasma pellet from rats treated with DGAL or APAP. […] Next, this fragmented product was labeled via enzymatic attachment of a biotin-labeled nucleotide that contained an indicator molecule comprising a fluorophore. After this labeled cDNA was hybridized and bound to the oligonucleotides on the microarray, any unbound cDNA was washed away and the microarrays were scanned. During this process, the microarray chips were scanned at a wavelength that allowed the indicator molecule to fluoresce (the excitation wavelength). The level of mRNA biomarker was determined from the level of fluorescence (e.g., correlating to the amount of labeled cDNA hybridized to the microarray) using standard techniques. Data on measurement of mRNA biomarkers (which also may be representative of gene expression induced as a result of liver perturbation) was preprocessed using GC-RMA and log2-transformed. The probe-level microarray data was checked for quality using various graphical and statistical means. Arrays showing low quality RNA or poor amplification were excluded from the analysis. To evaluate the ability of whole genome microarray analysis using plasma mRNA to discriminate between DGAL- and APAP-induced liver perturbation, a one-way analysis of variance and individual t-tests were then used to identify which individual mRNA biomarkers were statistically altered between the two treatment groups. A false-discovery rate correction was used for multiple comparisons. Analysis software was utilized to identify networks of interacting genes and other functional groups using gene lists generated.

rats [4] = conditions: rat, in vivo
Experimental: as §1, §2
Using methods described previously herein, liver enzymes including serum ALT and AST levels, and plasma mRNA levels, were also assessed to determine hepatotoxicity following APAP administration.
Rats were treated with skeletal muscle toxicant bupivacaine (“BPVC”). For BPVC treatment, rats were administered 0.5 mL sterile saline or 0.5% w/v sterile solution of BPVC in saline once into both the right and left tibialis anterior muscles. […] To compare the specificity of circulating liver mRNAs with AST and ALT following skeletal muscle injury, rats were treated with BPVC, and then serum enzymes and circulating liver mRNAs were measured 24 hours after treatment.

[5] = APAP 1400 mg/kg treatment group
[6] = rat plasma, APAP 1400 mg/kg gavage

## CC(=O)Nc1ccc(O)cc1 [APAP, acetaminophen]
Rats [1]; APAP 700 mg/kg gavage
  mortality: one rat
Rats [1]; APAP 1400 mg/kg gavage
  mortality: one rat
Rats [2]; [5]
  expression of Alb mRNA in liver: significant decrease
  expression of Hp mRNA in liver: significant decrease
Rats [3]; APAP 1400 mg/kg gavage
  number of mRNA biomarkers differentially expressed: 1374
  CYP450-related mRNAs in plasma: No increases
Rats [3]; [6]
  Fold increase Adam10: 14 fold
  Fold increase Akt3: 4 fold
  Fold increase Angpt1: 23 fold
  Fold increase Arhgef12: Arhgef12 (12); F2RI2 (12) fold
  Fold increase B2M: B2M (3) fold
  Fold increase Calr: 3 fold
  Fold increase Dapp1: 5 fold
  Fold increase F2RI2: Arhgef12 (12); F2RI2 (12) fold
  Fold increase Fcgr2b: 7 fold
  Fold increase Grin1: 10 fold
  Fold increase Gsk3b: Gsk3b (6) fold
  Fold increase Hla-C: 23 fold
  Fold increase Hla-E1: 9 fold
  Fold increase Itga6: 19 fold
  Fold increase Itgav: Itgav (12) fold
  Fold increase Itgb1: 17 fold
  Fold increase Jak2: 13 fold
  Fold increase Lyn: 10 fold
  Fold increase Mapk1: 15 fold
  Fold increase Nck2: 8 fold
  Fold increase Pdia3: Canx (5); Pdia3 (5); fold
  Fold increase Prkc: 4 fold
  Fold increase Prkcq: 3 fold
  Fold increase Psap: 20 fold
  Fold increase Rac1: 4 fold
  Fold-Change Alb mRNA (first listing): 102.57 fold and 103 fold
  Fold-Change Alb mRNA (second listing): 11.26 fold
  Fold-Change Arhgap28 mRNA: 23.18 fold
  Fold-Change C2cd21 mRNA: 21.52 fold
  Fold-Change Ccl2 mRNA: 79.83 fold
  Fold-Change Ceacam1 mRNA: 28.57 fold
  Fold-Change Cxcl2 mRNA: 68.29 fold
  Fold-Change Cxcl7 mRNA: 37.96 fold
  Fold-Change Cxcl12 mRNA: 30.90 fold and 31 fold
  Fold-Change Fam183b mRNA: 26.31 fold
  Fold-Change G1p2 mRNA: 17.16 fold
  Fold-Change Galnt1 mRNA: 22.06 fold
  Fold-Change Gpnmb mRNA: 6.10 fold
  Fold-Change Hspa1a mRNA: 40.60 fold
  Fold-Change Hspa1b mRNA: 21.07 fold
  Fold-Change Kcnab1 mRNA: 24.65 fold
  Fold-Change LOC259245 mRNA: 4.94 fold
  Fold-Change Lta4h mRNA: 6.27 fold
  Fold-Change Mt2a mRNA: 16.40 fold
  Fold-Change Pde5a mRNA: 24.18 fold
  Fold-Change Pgrmc1 mRNA: 2.82 fold
  Fold-Change Prdx5 mRNA: 2.57 fold
  Fold-Change Ptprj mRNA: 61.43 fold
  Fold-Change RT1-A2 mRNA: 22.73 fold
  Fold-Change Rbp4 mRNA: 20.44 fold
  Fold-Change Serpina1 mRNA: 24.15 fold
  Fold-Change Slc24a3 mRNA (rat SEQ ID NO: 47): 25.57 fold
  Fold-Change Slc24a3 mRNA (rat SEQ ID NO: 57): 22.11 fold
  Fold-Change Srxn1 mRNA: 21.98 fold
  Fold-Change St3gal2 mRNA: 21.94 fold
  Fold-Change Tuba4a mRNA: 4.21 fold
  Fold-Change Vcl mRNA: 70.40 fold and 70 fold
  Fold-Change Xpo5 mRNA: 30.54 fold

## CCCCN1CCCCC1C(=O)Nc1c(C)cccc1C (stereo not shown) [BPVC, bupivacaine]
Rats [4]
  ALT: 73.70 ± 4.69 U/L
  AST: 368.25 ± 31.81 U/L
  elevation in serum ALT: 1.96 ×
  elevation in serum AST: 3.58 ×

## N[C@H]1C(O)O[C@H](CO)[C@H](O)[C@@H]1O (stereo partly drawn) [DGAL, D-(+)-galactosamine]
Rats [2]; DGAL-treated rats
  expression of Alb mRNA in liver: small but statistically insignificant decrease
  expression of Fgb mRNA in liver: significant decrease
  expression of Hp mRNA in liver: significant decrease
Rats [3]; DGAL 1000 mg/kg ip
  number of mRNA biomarkers differentially expressed: 804
Rats [3]; rat plasma, DGAL 1000 mg/kg ip
  Fold increase Aadat: 3 fold
  Fold increase Apoc2: 23 fold
  Fold increase C9: 10 fold
  Fold increase Cf1h: 14 fold
  Fold increase Cfb: 13 fold
  Fold increase Cfi: 25 fold
  Fold increase Cyp2a2: 15 fold
  Fold increase Cyp2c9: 32 fold
  Fold increase Cyp3a2: 26 fold
  Fold increase Cyp3a4: 26 fold
  Fold increase Cyp4f12: 13 fold
  Fold increase F2: 14 fold
  Fold increase Fga: 28 fold
  Fold increase Mettl7b: Mettl7b (9) fold
  Fold increase Pla2g4a: 7 fold
  Fold increase Plg: 17 fold
  Fold increase Serping1: 7 fold
  Fold-Change Alb mRNA (first listing): 83.32 fold and 83 fold
  Fold-Change Alb mRNA (second listing): 77.08 fold
  Fold-Change Ambp mRNA: 111.24 fold and 111 fold
  Fold-Change Apoa1 mRNA: 53.34 fold and 53 fold
  Fold-Change Apoc1 mRNA: 35.57 fold and 36 fold
  Fold-Change Apoc3 mRNA: 58.09 fold
  Fold-Change Apoh mRNA: 39.84 fold
  Fold-Change Ccl2 mRNA: 25.35 fold
  Fold-Change Cyp2c7 mRNA: 102.92 fold and 103 fold
  Fold-Change Cyp2c13 mRNA: 40.38 fold and 40 fold
  Fold-Change Fgg mRNA: 65.02 fold and 65 fold
  Fold-Change Fgl1 mRNA: 52.04 fold
  Fold-Change G1p2 mRNA: 5.78 fold
  Fold-Change Gc mRNA: 42.82 fold
  Fold-Change Gpnmb mRNA: 4.04 fold
  Fold-Change Itih1 mRNA: 52.97 fold
  Fold-Change Itih3 mRNA: 40.88 fold
  Fold-Change Kng1 mRNA: 45.12 fold
  Fold-Change LOC259245 mRNA: 11.52 fold
  Fold-Change Lta4h mRNA: 3.40 fold
  Fold-Change Mt2a mRNA: 18.20 fold
  Fold-Change Mug1 mRNA: 108.00 fold
  Fold-Change Obp3 mRNA: 96.26 fold
  Fold-Change Pgrmc1 mRNA: 3.12 fold
  Fold-Change Prdx5 mRNA: 2.03 fold
  Fold-Change Rbp4 mRNA: 36.82 fold
  Fold-Change Serpina1 mRNA: 12.61 fold
  Fold-Change Serpina3k mRNA: 36.42 fold
  Fold-Change Spp2 mRNA: 34.78 fold
  Fold-Change Ttr mRNA: 60.61 fold and 61 fold
  Fold-Change Tuba4a mRNA: 2.24 fold
  Fold-Change Vtn mRNA: 57.99 fold
